What was measured:
[1] = system: Hep G2 (ATCC HB-8065) cells; experiment: Cytotoxicity, MTT assay; type: cell-based; settings: Homo sapiens, HepG2, 24 h, Hep G2; MTT, 24 hours incubation; read-out: IC50
Description: (§1) Before removing the frozen cell stocks from liquid nitrogen, culture medium was pre-warmed to 37° C. The frozen tube was then removed from liquid nitrogen and placed into a 37° C. water bath and shaken gently to thaw the cell stock as quickly as possible. A small portion of the pre-warmed culture medium was added to the cell solution. The cell suspension was then centrifuged at 1000 r/min for 3 minutes. The supernatant was discarded and the cells were resuspended in fresh culture medium.
(§2) NIH 3T3 (ATCC CRL-1658) and Hep G2 (ATCC HB-8065) cells were cultured with DMEM+10% FBS in 100 mm dishes. Cells were lifted for subculture or testing when confluence reached ˜60% by treating with 1× trypsin (incubated for 3 min at 37° C.). J774 (ATCC TIB-67) cells were cultured with DMEM+10% FBS in 100 mm dishes. Cells were lifted for subculture or testing when confluence reached ˜80% using a cell scraper. RAW264.7 (ATCC TIB-71) cells were cultured with DMEM+10% heat-inactivated FBS+1% pen/strep in T75 flasks. Cells were lifted for subculture or testing when confluence reached ˜80% using a cell scraper.
(§3) • 1. Cells were lifted and resuspended in culture medium. The number of cells in the cell suspension was determined using an auto-cell counter: 10 μL of the cell suspension was mixed with 10 μL 1× trypan blue (filtered with 0.2 μm PES filter) and the mixture was loaded onto a cell counting slide. Based on the concentration of viable cells, the cell suspension was further diluted to achieve the desired density. • 2. Cells were seeded in 96 well plates by adding 100 μL final cell suspension column-by-column using a multichannel pipette (5000 cells/well for NIH 3T3, 10000 cells/well for Hep G2, J774 and RAW264.7). The outer wells were block with PBS to reduce the effects of evaporation. One column was filled with only culture medium as a blank. Cells were incubated overnight before adding the test articles. • 3. Test articles were dissolved in 1×PBS (or DMSO) to obtain stocks solution. Stock solutions were pre-warmed before use. […] Serial dilutions (2-fold) of the 10× solutions were made in sterile culture tubes by diluting in 1×PBS (8 dilutions to yield 9 test concentrations). 900 μL of culture media was added to each tube to obtain final drug solution containing 10% PBS (or less than 1% DMSO) for each experimental group. • 4. The original culture medium was gently removed from the 96-well plates using a pipette. 100 μL of the test article solutions prepared in Step 3 were added to rows 2-7 of each column to obtain six replicates for each concentration. Plates were then incubated for 24 hours. • 5. MTT solutions were prepared by dissolving commercial MTT powder in 1×PBS to a concentration of 5 mg/mL. After passing through a 0.22 μm PES filter, the MTT solution was divided into 1 mL portions in sterile centrifuge tubes and stored at −20° C. • 6. MTT stock solutions were removed from the freezer to thaw at room temperature. Before adding MTT solutions, cell cultures were visually inspected and imaged using a microscope (to use as a comparison with MTT results). 10 μL of the 5 mg/mL MTT solution was added to each well and the plate was incubated for 4 hours. • 7. After 4 h incubation, the culture medium/MT solution was removed gently using a pipette. 100 μL of DMSO was added to each well using a multichannel pipette. The 96-well plates were analyzed in a plate reader using the following method: shake for 5 minutes, wait for 30 seconds, and measure absorbance at 570 nm. • 8. Data processing: The average of background Abg was calculated from the blank column. All other data was first treated by subtracting Abg. The average A. and standard deviation Se of each experimental group and the average Ac and standard deviation Sc for control group (with pure culture medium incubation) were then calculated. The cell viability was determined as Ae/Ac×100% and corresponding error as Se/Ae×100%. Significant outliers in any experimental or control group were removed. […]

[2] = Solubility in aqueous media; type: physicochemical; settings: reason why efficacy could not be detected
[3] = system: RAW264.7 (ATCC TIB-71) cells; experiment: Cytotoxicity, MTT assay; type: cell-based, murine; settings: RAW 264.7
Description: as §1, §2
• 1. Cells were lifted and resuspended in culture medium. The number of cells in the cell suspension was determined using an auto-cell counter: 10 μL of the cell suspension was mixed with 10 μL 1× trypan blue (filtered with 0.2 μm PES filter) and the mixture was loaded onto a cell counting slide. Based on the concentration of viable cells, the cell suspension was further diluted to achieve the desired density. • 2. […] The 96-well plates were analyzed in a plate reader using the following method: shake for 5 minutes, wait for 30 seconds, and measure absorbance at 570 nm. • 8. Data processing: The average of background Abg was calculated from the blank column. […] The average A. and standard deviation Se of each experimental group and the average Ac and standard deviation Sc for control group (with pure culture medium incubation) were then calculated. The cell viability was determined as Ae/Ac×100% and corresponding error as Se/Ae×100%. […]

[4] = system: primary human hepatocytes; experiment: Cytotoxicity tested by Eurofins Pharma Discovery Services; type: cell-based
[5] = system: NIH 3T3 (ATCC CRL-1658) cells; experiment: Cytotoxicity, MTT assay; type: cell-based; settings: NIH 3T3
Description: as §1, §2, §3

[6] = system: J774 (ATCC TIB-67) cells; experiment: Cytotoxicity, MTT assay; type: cell-based
Description: as §1, §2, §3

[7] = system: HRPTEpiC; experiment: Cytotoxicity tested by Eurofins Pharma Discovery Services; type: cell-based; settings: data provided by Eurofins
[8] = system: Hep G2 cells; experiment: as above; type: cell-based
[9] = system: S. epidermidis (ATCC 14990); experiment: MIC broth microdilution method, Table 3; settings: S. epidermidis (+); BHI medium; less than 10% relative growth
[10] = system: K. aerogenes (ATCC 13048); experiment: MIC broth microdilution method, Table 3; settings: K. aerogenes (−); LB medium; less than 10% relative growth
[11] = system: E. coli K12 (ATCC 47076); experiment: MIC broth microdilution method, Table 3; settings: E. coli K12 (−); LB medium; less than 10% relative growth
[12] = at the concentration given as IC50 bound

| Compound | IC50 [1] [µg/mL] | solubility [2] | IC50 ([3]; MTT, 24 hours incubation) [µg/mL] | cell viability at the highest or lowest test concentration [3, 12] | cell viability at the highest or lowest test concentration ([4]; Eurofins, at the concentration given as IC50 bound) | IC50 ([4]; data provided by Eurofins) [µg/mL] | IC50 ([5]; MTT, 24 hours incubation) [µg/mL] | cell viability at the highest or lowest test concentration [5, 12] | IC50 ([6]; MTT, 24 hours incubation) [µg/mL] | cell viability at the highest or lowest test concentration [6, 12] | IC50 [7] [µg/mL] | cell viability at the highest or lowest test concentration ([8]; Hep G2, Eurofins, at the concentration given as IC50 bound) | IC50 ([8]; Hep G2, data provided by Eurofins) [µg/mL] | MIC [9] [µg/mL] | MIC [10] [µg/mL] | MIC [11] [µg/mL] |
| --- | --- | --- | --- | --- | --- | --- | --- | --- | --- | --- | --- | --- | --- | --- | --- | --- |
| CC(C)(C)c1cc[n+](CCCCCCOc2cc(/C=C/c3cc(OCCCCCC[n+]4ccc(C(C)(C)C)cc4)cc(OCCCCCC[n+]4ccc(C(C)(C)C)cc4)c3)cc(OCCCCCC[n+]3ccc(C(C)(C)C)cc3)c2)cc1.[I-].[I-].[I-].[I-] [Formula D] | 20.7 | low solubility |  |  |  |  |  |  |  |  |  |  |  |  |  |  |
| Colistin [reference compound] |  |  | >20 | (109%) | (101%) | >324 | >128 | (104%) | >128 | (115%) | 215 | (100%) | >324 | >64 | 2 | 1 |
